Experimental findings from PMC10254314 (2023) are described below.

Test [1] has as its system poly A–poly U (pApU) (RNA, polymer) A/U. Briefly: UV thermal melting at 260 nm. The conditions noted are these: Na+ (sodium cacodylate, I = 0.05 M), pH 7, r = [compound]/[polynucleotide] = 0.3, polynucleotide 2 × 10^-5 M, per base.
Test [2] has as its system poly dAdT–poly dAdT (AT-DNA) (DNA, polymer) AT. The test can be described thus: UV/vis titration, Scatchard (McGhee–von Hippel) fit. The conditions noted are these: Na+ (sodium cacodylate, I = 0.05 M), pH 7.0, n fixed 0.2, per base.
Test [3] shares this test system. Briefly: UV thermal melting at 260 nm. As to conditions: Na+ (sodium cacodylate, I = 0.05 M), pH 7, r = [compound]/[polynucleotide] = 0.3, polynucleotide 2 × 10^-5 M, per base.

On to `COc1cc2c(cc1OC)SC(c1ccc(NCc3ccc(Cl)cc3)cc1)=[N+](C)C2`, for which, in test [1], the shift in melting temperature (ΔTm) (in general, the change in melting temperature against a reference sample) was “+1 ± 0.5 °C”.
Still for that read-out and setting: with `COc1cc2c(cc1OC)SC(c1ccc(NCc3cccc(C)c3)cc1)=[N+](C)C2` the figure was −1.5 ± 0.5 °C.
Regarding `COc1ccc(Nc2ccc(C3=[N+](C)Cc4cc(Nc5ccc(OC)cc5)ccc4S3)cc2)cc1`, the figures for the ΔTm result in test [1] and in test [3] were “+3.5 ± 0.5 °C” and −1.5 ± 0.5 °C, respectively. In test [2], this compound had a logKs of 4.9.
The like results for `COc1ccc(Nc2ccc(C3=[N+](C)Cc4cccc(Nc5ccc(OC)cc5)c4S3)cc2)cc1` were, in that order, −1.2 ± 0.5 °C, −2.1 ± 0.5 °C and 4.9.
